This is an account of results in patent US12077503B2, “Substituted cyclic amides and their use as herbicides” (FMC CORPORATION, priority 2015, dated 2024).

Holding throughout (format): in vivo
For one experiment, the system named is rice (Oryza sativa). Nature of the experiment: Test C flooded paddy test. The conditions noted are these: Flood; for Plant response rating (scale of 0 to 100), Rice: 0 is no effect, 100 is complete control. The method, boiled down: (§1)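 Visual 0–100 injury rating versus controls (0 = no effect, 100 = complete control) at 13 to 15 d. 2-leaf-stage plants; pots flooded 3 cm over soil surface, test compound added to paddy water; greenhouse.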

The test system of experiment [1] is barnyardgrass (Echinochloa crus-galli). Nature of the experiment: Test C flooded paddy test. The following applies: Flood; for Plant response rating (scale of 0 to 100), Barnyardgrass: 0 is no effect, 100 is complete control. The method in brief:
as §1

Experiment [2] deals with sedge, umbrella (small-flower umbrella sedge, Cyperus difformis). Nature of the experiment: Test C flooded paddy test. The following applies: Flood; for Plant response rating (scale of 0 to 100), Sedge, Umbrella: 0 is no effect, 100 is complete control. The method, boiled down:
as §1

For experiment [3], the system named is ducksalad (Heteranthera limosa). Nature of the experiment: Test C flooded paddy test. The following applies: Flood; for Plant response rating (scale of 0 to 100), Ducksalad: 0 is no effect, 100 is complete control. The method, boiled down:
as §1

In experiment [4] the test system is rice flatsedge (Cyperus iria). Description: Test F flooded paddy test. Also noted: key: 0 = no effect, 100 = complete control. The following applies: Flood.
Experiment [5] has as its system transplanted rice seedlings (Oryza sativa cv. ‘Japonica—M202’). Nature of the experiment: Test F flooded paddy test. Also on record: key: 0 = no effect, 100 = complete control. The following applies: Flood.
The mark [6] stands for this setting: 31 g ai/ha, scale 0 to 100 (0 no effect, 100 complete control), 13 to 15 d.

On to `CN1C[C@H](c2ccc(F)c(F)c2)[C@@H](C(=O)Nc2cccc(F)c2F)C1=O` [Compound 639, (3S,4S)—N-(2,3-difluorophenyl)-4-(3,4-difluorophenyl)-1-methyl-2-oxo-3-pyrrolidinecarboxamide], for which, in the experiment on rice (Oryza sativa) (setting [6]), the “Plant response rating, Rice” value worked out at 0. Further, the “Plant response rating (scale of 0 to 100), Rice” value in the experiment with rice (Oryza sativa) (62 g ai/ha) is recorded as 0; in the experiment on rice (Oryza sativa) (125 g ai/ha), 20; in the experiment with rice (Oryza sativa) (250 g ai/ha), 20. The “Plant response rating, Barnyardgrass” value in experiment [1] (setting [6]) was 0. Further, the results for the “Plant response rating (scale of 0 to 100), Barnyardgrass” value in experiment [1] (62 g ai/ha), in experiment [1] (125 g ai/ha) and in experiment [1] (250 g ai/ha) were 50, 70 and 75, respectively. For the same compound, the “Plant response rating, Sedge, Umbrella” value in experiment [2] (setting [6]) is given as 0. Further, the “Plant response rating (scale of 0 to 100), Sedge, Umbrella” value in experiment [2] (62 g ai/ha), in experiment [2] (125 g ai/ha) and in experiment [2] (250 g ai/ha) was 0 in each case. The “Plant response rating, Ducksalad” value in experiment [3] (setting [6]) is on record as 50. The entries for the “Plant response rating (scale of 0 to 100), Ducksalad” value in experiment [3] (62 g ai/ha), in experiment [3] (125 g ai/ha) and in experiment [3] (250 g ai/ha) were 75, 90 and 100, respectively. Besides, the “Plant response rating: Flatsedge, Rice” value in experiment [4] (32 g ai/ha), in experiment [4] (64 g ai/ha), in experiment [4] (125 g ai/ha) and in experiment [4] (250 g ai/ha) was 0 throughout. In addition, the “Plant response rating: Rice, Transplanted” value in experiment [5] (32 g ai/ha) worked out at 0; in experiment [5] (64 g ai/ha) it was 15; in experiment [5] (125 g ai/ha) it was 25; in experiment [5] (250 g ai/ha) it was 40.
